Laboratory results reported in patent US4977138A, “FR901228 substance and preparation thereof” (Fujisawa Pharmaceutical Co., Ltd., priority 1988, dated 1990).
In brackets after ≈: the same amount, converted by molar mass.

Assays:
[1] = system: P388 murine leukemia; experiment: Antitumor activity against P388 murine leukemia; type: in vivo, BDFl mice; settings: for Mean Survival Time: once daily for four days from 24 hours after inoculation, BDFl mice; for Time (%) (T/C % of mean survival time): 100× treated group/control group
Method: Antitumor activity of FR901228 substance was determined in murine tumor system. P388 leukemia cells […] were implanted intraperitoneally into BDFl mice (female, 8 weeks old). Twenty-four hours after the inoculation of tumor cells, FR901228 substance was administered intraperitoneally to mice. Administrations of FR901228 substance were continued intraperitoneally once daily for another three days. FR901228 substance was suspended in 0.9% saline. Control mice received intraperitoneal doses of 0.9% saline.
Antitumor activity was expressed as the mean survival time of group and also expressed as the T/C % (100× treated group/control group) of mean survival time.

[2] = system: MCF-7 (breast cancer); experiment: Inhibition of human tumor cell growth in vitro (MTT cytotoxicity test); type: cell-based; settings: four days
Method: (§1) The cytotoxicity test was performed in microtiter plates, with each well containing 3×10^3 tumor cells in 100 μl Dulbecco's minimum essential medium supplemented with 10% fetal calf serum, penicillin (50 units/ml) and streptomycin (50 μg/ml). The cells were incubated at 37° C. for four days and the colorimetric MTT [3-(4,5-dimethylthiazol-2-yl)-2,5-diphenyl tetrazolium bromide, made by Sigma] assay was performed according to the method described by Mosmann (J. Immunol. Methods, 65, 55-63, 1983). MTT was dissolved in phosphate buffer solution (PBS) at 5 mg/ml and filtered to sterilize and remove a small amount of insoluble residue. After the culture of human tumor cells was terminated, this MTT solution (10 μl per 100 μl medium) was added to all wells of an assay, and plates were further incubated at 37° C. for 4 hours. Acid-isopropanol (100 μl of 0.04N HCl in isopropanol) was added to all wells and mixed thoroughly to dissolve the dark blue crystals. After all crystals were dissolved, the plates were read on a 2-wavelength microplate photometer (Model MTP-22; Corona Electric Co., Ltd., Katsuta, Japan) at 550 nm, a reference wavelength of 660 nm. The object compound of this invention was dissolved in methanol and diluted in Dulbecco's minimum essential medium and added to the culture to give final concentration of 1 μg/ml or less.

[3] = system: SW480 (colon cancer); experiment: as above; type: cell-based; settings: four days
Method: as §1

[4] = system: A549 (lung cancer); experiment: as above; type: cell-based; settings: four days
Method: as §1

[5] = Solubility of FR901228 substance in solvents; type: physicochemical
[6] = system: Shizosaccharomyces pombe; experiment: Antimicrobial activity, agar dilution method in Sabouraud medium; type: cell-based; settings: 48 hours incubation at 25° C.
Method: (§2) Antimicrobial activity of FR901228 was performed by an agar dilution method in Sabouraud medium.
(§3) Minimum inhibitory concentration (MIC) is expressed in terms of μg/ml after 48 hours incubation at 25° C.

[7] = system: Aspergillus niger; experiment: as above; type: cell-based; settings: 48 hours incubation at 25° C.
Method: as §2, §3

[8] = system: Aureobasidium pullulans IFO 4466; experiment: as above; type: cell-based; settings: 48 hours incubation at 25° C.
Method: as §2, §3

[9] = 0.32 mg/kg/day intraperitoneally
[10] = 1.0 mg/kg/day intraperitoneally

For `C/C=C1\NC(=O)[C@H]2CSSCC/C=C/[C@H](CC(=O)N[C@H](C(C)C)C(=O)N2)OC(=O)[C@H](C(C)C)NC1=O` [FR901228 substance], the “Mean Survival Time” value [1, 9] was 14.25 days, the “Time (%) (T/C % of mean survival time)” value [1, 9] was 158.3% and the “Mean Survival Time” value [1, 10] was 15.25 days. For the same molecule, the “Time (%) (T/C % of mean survival time)” value [1, 10] was 169.4%, the IC50 [2] was 0.99 ng/mL (≈ 0.00183 µM) and the IC50 [3] was 0.57 ng/mL (≈ 0.00105 µM). For the same molecule, the IC50 [4] was 0.82 ng/mL (≈ 0.00152 µM), the Solubility ([5]; chloroform) was “soluble” and the Solubility ([5]; ethanol) was “sparingly soluble”. For the same molecule, the Solubility ([5]; ethyl acetate) was “soluble”, the Solubility ([5]; hexane) was “insoluble” and the Solubility ([5]; methanol) was “sparingly soluble”. For the same molecule, the Solubility ([5]; water) was “insoluble”, the MIC [6] was 10 µg/mL (≈ 18.5 µM) and the MIC [7] was 100 µg/mL (≈ 185 µM). It also gave an MIC [8] of 10 µg/mL (≈ 18.5 µM).
